Data taken from ChEMBL document CHEMBL4342499, “Novel Stapling by Lysine Tethering Provides Stable and Low Hemolytic Cationic Antimicrobial Peptides” (J Med Chem, 2020).

Tests used:
Escherichia coli [1] = tested on: Escherichia coli
Staphylococcus aureus [2] = experiment: Antimicrobial activity against methicillin-resistant Staphylococcus aureus assessed as inhibition of microbial growth incubated for 16 hrs by microdilution method; type: functional
Listeria monocytogenes = experiment: Antimicrobial activity against Listeria monocytogenes assessed as inhibition of microbial growth incubated for 16 hrs by microdilution method; type: functional
Staphylococcus aureus [3] = experiment: Antimicrobial activity against Staphylococcus aureus assessed as inhibition of microbial growth incubated for 16 hrs by microdilution method; type: functional
Pseudomonas aeruginosa = experiment: Antimicrobial activity against Pseudomonas aeruginosa assessed as inhibition of microbial growth incubated for 16 hrs by microdilution method; type: functional
Escherichia coli [4] = experiment: Antimicrobial activity against Escherichia coli assessed as inhibition of microbial growth incubated for 16 hrs by microdilution method; type: functional

| SMILES | MIC99.9 (Escherichia coli [1]) [µg/mL] | MIC99.9 (Staphylococcus aureus [2]) [µg/mL] | MIC99.9 (Listeria monocytogenes) [µg/mL] | MIC99.9 (Staphylococcus aureus [3]) [µg/mL] | MIC99.9 (Pseudomonas aeruginosa) [µg/mL] | MIC99.9 (Escherichia coli [4]) [µg/mL] |
| --- | --- | --- | --- | --- | --- | --- |
| CN[C@H](CC(C)C)C(=O)N[C@H]1C(=O)N[C@@H](CC(N)=O)C(=O)N[C@H]2C(=O)N[C@H]3C(=O)N[C@H](C(=O)N[C@H](C(=O)O)c4cc(O)cc(O)c4-c4cc3ccc4O)[C@H](O)c3ccc(c(Cl)c3)Oc3cc2cc(c3O[C@@H]2O[C@H](CO)[C@@H](O)[C@H](O)[C@H]2O[C@H]2C[C@](C)(N)[C@H](O)[C@H](C)O2)Oc2ccc(cc2Cl)[C@H]1O [VANCOMYCIN] | >128 | 2 | 1 | 2 | >128 | >128 |
| CCN1CCN(C(=O)N[C@@H](C(=O)N[C@@H]2C(=O)N3C(C(=O)O)=C(CSc4nnnn4C)CS[C@H]23)c2ccc(O)cc2)C(=O)C1=O [CEFOPERAZONE] | >128 | >128 | 16 | 0.5 | 2 | 0.125 |
